Source: patent US12453716B2, “Small molecule antagonist to PACAP receptor and uses thereof” (University of Vermont and State Agricultural College, priority 2019, dated 2025)

Tests used:
PAC1 receptor [1] = target: T1, PAC1 receptor (Homo sapiens, UniProt P41586); experiment: PACAP-stimulated PAC1-EGFP receptor internalization in stable HEK cell line; format: cell-based
T1 construct: expressed in transfected cells
T1 sequence (P41586 21-468): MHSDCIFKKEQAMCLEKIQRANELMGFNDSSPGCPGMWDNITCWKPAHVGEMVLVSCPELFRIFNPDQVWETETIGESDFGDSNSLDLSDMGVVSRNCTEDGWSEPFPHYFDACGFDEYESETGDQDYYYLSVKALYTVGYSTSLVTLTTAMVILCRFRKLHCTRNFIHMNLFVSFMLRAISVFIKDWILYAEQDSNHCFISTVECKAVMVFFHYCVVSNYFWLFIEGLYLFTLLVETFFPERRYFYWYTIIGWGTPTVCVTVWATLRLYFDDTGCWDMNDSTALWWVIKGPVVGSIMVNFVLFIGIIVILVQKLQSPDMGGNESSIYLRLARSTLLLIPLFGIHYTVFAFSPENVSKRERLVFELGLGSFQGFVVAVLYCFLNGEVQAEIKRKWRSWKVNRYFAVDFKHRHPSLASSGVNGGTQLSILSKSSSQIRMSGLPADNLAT
Experimental: (§1) Compound I-1 blocks PAC1 receptor internalization and calcium signaling. […] Upon 25 nM PACAP application (15 min), the tagged receptor is internalized into intracellular endosomes for ERK signaling (PACAP, middle panel). However, pretreatment of the culture (15 min) with 10-25 μM I-1 blocked PACAP-stimulated receptor internalization (PACAP+I-1); the PAC1-EGFP receptors remained on the cell surface. In FIG. 2, using the same HEK PAC1-EGFP cell line, PACAP rapidly stimulated calcium signaling in Fura-2 assays. The response was blocked approximately 50% with 2.5 μM compound I-1, and was abolished with 25 μM I-1.

PAC1 receptor [2] = target: T1, PAC1 receptor; experiment: PACAP-stimulated calcium signaling, Fura-2 assay in HEK PAC1-EGFP cell line; format: cell-based; conditions: for PAC1 receptor-mediated calcium flux: concentration not given
Experimental: as §1
The PAC1-EGFP HEK cell lines were preloaded with Fura-2 for calcium imaging. PACAP alone produced robust calcium signals.

PAC1 receptor [3] = target: T1, PAC1 receptor; experiment: PACAP-stimulated ERK phosphorylation/activation in HEK PAC1-EGFP receptor cell line; format: cell-based; conditions: for PAC1 receptor endosomal/ligand-mediated ERK activation: concentration not given
Experimental: In FIG. 3, using the stably expressing HEK PAC1-EGFP receptor cell line, compound I-1 blocks 25 nM PACAP-stimulated ERK phosphorylation and activation (p42 and p44 ERK bands) in a dose-dependent manner. […] In similar assays, the other compounds (I-2 to I-26) can block PACAP-stimulated ERK signaling with an apparent IC50 of 25 μM.
In FIG. 5, the compound I-20 acts as a glucagon receptor (GCGR) antagonist by binding to an extra-helical allosteric site on the receptor. […] In FIG. 6, the addition of compound I-20 can increase the efficacy and potency of […] inhibiting PACAP-stimulated ERK activation.
In FIG. 7, all samples were pretreated with 25 μM acyl hydrazide before 25 nM PACAP application. Glucagon antagonist is I-20. Data normalized to total cellular ERK not shown.

male rats = experiment: Open field test after BNST infusion, PACAP-induced anxiety-related behavior; format: in vivo, rat; conditions: FIG. 8
Excerpt: Compound I-1 blocks PACAP-induced anxiety-related behavior. In FIG. 8, male rats were cannulated bilaterally into the BNST. […] PACAP infusions into the BNST produced stress/anxiety-like responses as reflected by decreased center field times (duration in seconds). […] In the right panel, the open field entry data was not affected by changes in animal locomotion. Asterisk, statistically different from other groups. Note: I-1+PACAP returned open field times to untreated control levels.

O=C(N/N=C/c1cccc2c1ccn2Cc1cc(F)cc(F)c1)c1ccc(O)c(Cl)c1 [Compound I-1, (E)-3-chloro-N′-((1-(3,5-difluorobenzyl)-1H-indol-4-yl)methylene)-4-hydroxybenzohydrazide]
PACAP-stimulated receptor internalization (PAC1 receptor [1]; 15 min pretreatment with 10-25 μM compound, 25 nM PACAP, 15 min, FIG. 1): blocked | PACAP-stimulated calcium signal blocked (PAC1 receptor [2]; 2.5 μM compound): approximately 50% | PACAP-stimulated calcium signal/flux (PAC1 receptor [2]; 25 μM compound): abolished | PACAP-stimulated ERK activation (PAC1 receptor [3]; 25 μM compound, 25 nM PACAP, FIG. 3): near control levels | IC50 (PAC1 receptor [3]; normalized to total ERK levels, approximate/apparent, FIG. 4, read-out: IC50 in inhibiting PACAP-stimulated ERK activation): 8 to 10 µM | Open field center field time, compound alone compared to control (male rats; 5-10 μM infusion into the BNST, no PACAP): no apparent effects | PACAP-induced stress/anxiety responses (open field center field time) (male rats; BNST preinjection of compound before PACAP infusion): completely blocked

Cc1cc(C)c(C)c(Cn2ccc3c(/C=N/NC(=O)c4ccc(O)c(Cl)c4)cccc32)c1C [Compound I-19, (E)-3-chloro-4-hydroxy-N′-((1-(2,3,5,6-tetramethylbenzyl)-1H-indol-4-yl)methylene)benzohydrazide]
PAC1 receptor-mediated calcium flux (PAC1 receptor [2]): completely blocking | PAC1 receptor endosomal/ligand-mediated ERK activation (PAC1 receptor [3]): without apparent effects

COc1ccc2cc(-c3cc(-c4cc(Cl)cc(Cl)c4)nn3C(C)c3ccc(C(=O)NCCC(=O)O)cc3)ccc2c1 (stereo not drawn) [Compound I-20]
ERK activation attenuated (PAC1 receptor [3]; 25 μM compound, FIG. 5): approximately 50% | Antagonism at the PAC1-receptor compared to I-1 (PAC1 receptor [3]; FIG. 5): weak antagonist | PACAP-stimulated ERK activation, combination (PAC1 receptor [3]; I-20 together with 10 μM I-1, FIG. 6): basal or near-basal levels

O=C(N/N=C/c1cccc2c1ccn2Cc1cccc(C(F)(F)F)c1)c1ccc(O)c(Cl)c1 [Compound I-21, reference compound]
PAC1 receptor internalization (PAC1 receptor [1]; concentration not given): modest effects | PAC1 receptor-mediated calcium flux (PAC1 receptor [2]): attenuate | PAC1 receptor endosomal/ligand-mediated ERK activation (PAC1 receptor [3]): modest effects
